For 17 compounds, IC50 and CC50 results are on record in US9351989B2, “Substituted purine nucleosides, phosphoroamidate and phosphorodiamidate derivatives for treatment of viral infections” (INHIBITEX, INC., priority 2010, dated 2016).

Data set [1] deals with HCV replicon (Genotype 1b). Nature of the data set: Luciferase genotype 1b replicon potency assay. The format is cell-based. The following applies: Hepatitis C virus, Huh-7; luciferase-reporter genotype 1b subgenomic replicon cell line (Huh7); Renilla luciferase reporter activity. Here is the method:
(§1) Further to the above Examples, representative compounds, prepared according to the examples were tested for potency in an HCV replicon assay (Genotype 1b) for activity against the virus (EC50) and toxicity to the cells (CC50).
Huh7 Replicon Cell Lines and Cell Culture Conditions:
(§2) A luciferase-reporter genotype 1b subgenomic replicon cell line, and a genotype 1a full-length replicon cell line were obtained from Apath, LLC, Brooklyn, N.Y.: All cell lines were passaged twice a week by splitting 4 or 6 fold. Cells were maintained in DMEM-high glucose medium (HyClone, Logan, Utah) supplemented with 9% FBS (HyClone), 2 mM glutamine (Invitrogen, Carlsbad, Calif.), 100 U/mL PenStrep (Invitrogen). Media also contained 0.25 mg/mL of the antibiotic G-418 to maintain stable expression of the replicon (Invitrogen). Incubation was performed at 37° C. in 5% CO2 atmosphere. Replicon cell lines were used until they accumulated 15-to-18 passages, after which cells were restarted from the frozen stock. Seeding cell counts were routinely determined using an automatic Cedex HiRes cell counter (Flownomics Analytical Instruments, Madison, Wis.) or manually using INCYTO C—Chip™ Disposable Hemacytometers (Fisher Scientific, Pittsburgh, Pa.).
The anti-HCV assays were done accordingly:
Luciferase Genotype 1b Replicon Potency Assay.
Replicon cells were seeded into white 96-well plates (Nunc/VWR) at a density of 2×10^4 cells/well in medium without G-418. A Stacker Multidrop Liquid Dispenser (MTX Lab Systems, Vienna, Va.) was employed to ensure uniform and fast cell seeding into multiple plates. 18-24 h after cell plating, inhibitors were added and cells were incubated for additional 24, 48, or 72 h (as indicated). Compounds were tested in triplicates and quadruplicates at 3× or 4× serial dilutions over a range of 0.0001-to-10 μM concentrations. HCV replication was monitored by Renilla luciferase reporter activity assay using Renilla luciferase reporter (Promega, Madison, Wis.) and a Veritas Luminometer (Turner Biosystems, Sunnyvale, Calif.). 50% and 90% inhibitory concentration (IC50 and IC90) values were calculated as the concentration of compound that results correspondingly in 50% and 90% decreases in the reporter expression as compared to untreated cells. The values were determined by non-linear regression (four-parameter sigmoidal curve fitting) analysis.
A general note: A replicon is a self-replicating genome or part of one, used to study replication in cells.

Data set [2] is described as follows: Cytotoxicity assay (CellTiter-Glo). In kind it is cell-based. The following applies: human, toxicity to the cells, 72 h incubation, CellTiter-Glo cell viability. Here is the method:
as §1, §2
The cell cytotoxicity assay data was obtained as described below:
Cells were seeded into 96-well plates at a density of 2×10^4 cells per well. 24 h after cell plating, 11 serial 2× compound dilutions, starting with 100 μM, were applied to the testing plates (3 repeats per compound dilution). Each testing plate was run with a “no-compound” control. Incubation with compounds was continued at 37° C. in a CO2 incubator for 72 h. To determine cell viability, the CellTiter-Glo® assay (Promega, Madison, Wis.) was performed according to the manufacturer's protocol. The compound concentration resulting in 50% luminescent signal was reported as the CC50 concentration.
(Cellular ATP, detected with luciferase, serves as a proxy for viable cell number.)

Setting [3] is: Huh7 HCV genotype 1b replicon cells.

Some results are limits rather than exact numbers.

As to `COc1nc(N)nc2c1nc(I)n2[C@@H]1O[C@H](CO)[C@@H](O)[C@@]1(C)O` [Example 3, (2R,3R,4R,5R)-2-(2-Amino-8-iodo-6-methoxy-9H-purin-9-yl)-5-(hydroxymethyl)-3-methyltetrahydrofuran-3,4-diol], 6.1 µM corresponded to half-maximal inhibition in data set [1] (IC50). Moreover, the CC50 at 72 h in data set [2] (setting [3]) is over 100 µM.
For `COc1nc(N)nc2c1nc(Br)n2[C@@H]1O[C@H](CO)[C@@H](O)[C@@]1(C)O` [Example 5, (2R,3R,4R,5R)-2-(2-Amino-8-bromo-6-methoxy-9H-purin-9-yl)-5-(hydroxymethyl)-3-methyltetrahydrofuran-3,4-diol] the same measures were over 100 µM and over 100 µM.
With `COc1nc(N)nc2c1nc(Cl)n2[C@@H]1O[C@H](CO)[C@@H](O)[C@@]1(C)O` [Example 6, (2R,3R,4R,5R)-2-(2-Amino-8-chloro-6-methoxy-9H-purin-9-yl)-5-(hydroxymethyl)-3-methyltetrahydrofuran-3,4-diol], the IC50 in data set [1] is over 100 µM. The CC50 at 72 h in data set [2] (setting [3]) was over 100 µM.
In the case of `COc1nc(N)nc2c1nc(I)n2[C@@H]1O[C@H](COP(=O)(N[C@@H](C)C(=O)OCc2ccccc2)Oc2cccc3ccccc23)[C@@H](O)[C@@]1(C)O` (stereo partly shown) [Example 7], the IC50 in data set [1] amounted to 0.031 µM. This compound yielded a CC50 at 72 h in data set [2] of 18 µM.
On the same counts, the results for `COc1nc(N)nc2c1nc(I)n2[C@@H]1O[C@H](COP(=O)(N[C@@H](C)C(=O)OCc2ccc(F)cc2F)Oc2cccc3ccccc23)[C@@H](O)[C@@]1(C)O` (stereo partly drawn) [Example 8, (2S)-2,4-Difluorobenzyl 2-((((2R,3R,4R,5R)-5-(2-Amino-8-iodo-6-methoxy-9H-purin-9-yl)-3,4-dihydroxy-4-methyltetrahydrofuran-2-yl)methoxy)(naphthalen-1-yloxy)phosphorylamino)propanoate] are 0.009 µM and 8.1 µM.
On the same counts, the results for `CCCOC(=O)[C@H](C)NP(=O)(OC[C@H]1O[C@@H](n2c(I)nc3c(OC)nc(N)nc32)[C@](C)(O)[C@@H]1O)Oc1cccc2ccccc12` (stereo partly drawn) [Example 9, (2S)-Propyl 2-((((2R,3R,4R,5R)-5-(2-Amino-8-iodo-6-methoxy-9H-purin-9-yl)-3,4-dihydroxy-4-methyltetrahydrofuran-2-yl)methoxy)(naphthalen-1-yloxy)phosphorylamino)propanoate] are 0.009 µM and 6 µM.
For `CCCCOC(=O)[C@H](C)NP(=O)(OC[C@H]1O[C@@H](n2c(I)nc3c(OC)nc(N)nc32)[C@](C)(O)[C@@H]1O)Oc1cccc2ccccc12` (stereo partly drawn) [Example 10, (2S)-Butyl 2-((((2R,3R,4R,5R)-5-(2-Amino-8-iodo-6-methoxy-9H-purin-9-yl)-3,4-dihydroxy-4-methyltetrahydrofuran-2-yl)methoxy)(naphthalen-1-yloxy)phosphorylamino)propanoate] the same measures were 0.011 µM and 7.9 µM.
The compound `CCCCCOC(=O)[C@H](C)NP(=O)(OC[C@H]1O[C@@H](n2c(I)nc3c(OC)nc(N)nc32)[C@](C)(O)[C@@H]1O)Oc1cccc2ccccc12` (stereo partly drawn) [Example 11, (2S)-Pentyl 2-((((2R,3R,4R,5R)-5-(2-Amino-8-iodo-6-methoxy-9H-purin-9-yl)-3,4-dihydroxy-4-methyltetrahydrofuran-2-yl)methoxy)(naphthalen-1-yloxy)phosphorylamino)propanoate] registered an IC50 in data set [1] of 0.012 µM. For the same compound, the CC50 at 72 h in data set [2] was 11 µM.
Regarding `COc1nc(N)nc2c1nc(I)n2[C@@H]1O[C@H](COP(=O)(N[C@@H](C)C(=O)OCC(C)(C)C)Oc2cccc3ccccc23)[C@@H](O)[C@@]1(C)O` (stereo partly drawn) [Example 12, (2S)-Neopentyl 2-((((2R,3R,4R,5R)-5-(2-Amino-8-iodo-6-methoxy-9H-purin-9-yl)-3,4-dihydroxy-4-methyltetrahydrofuran-2-yl)methoxy)(naphthalen-1-yloxy)phosphorylamino)propanoate], in data set [1], the IC50 is 0.02 µM. This compound gave a CC50 at 72 h in data set [2] of 14 µM.
For `COc1nc(N)nc2c1nc(Br)n2[C@@H]1O[C@H](COP(=O)(N[C@@H](C)C(=O)OCC(C)(C)C)Oc2cccc3ccccc23)[C@@H](O)[C@@]1(C)O` (stereo partly drawn) [Example 13, (2S)-Neopentyl 2-((((2R,3R,4R,5R)-5-(2-Amino-8-bromo-6-methoxy-9H-purin-9-yl)-3,4-dihydroxy-4-methyltetrahydrofuran-2-yl)methoxy)(naphthalen-1-yloxy)phosphorylamino)propanoate] the same measures were 15 µM and 60 µM.
In data set [1], `COc1nc(N)nc2c1nc(Cl)n2[C@@H]1O[C@H](COP(=O)(N[C@@H](C)C(=O)OCC(C)(C)C)Oc2cccc3ccccc23)[C@@H](O)[C@@]1(C)O` (stereo partly drawn) [Example 14, (2S)-Neopentyl 2-((((2R,3R,4R,5R)-5-(2-Amino-8-chloro-6-methoxy-9H-purin-9-yl)-3,4-dihydroxy-4-methyltetrahydrofuran-2-yl)methoxy)(naphthalen-1-yloxy)phosphorylamino)propanoate] yielded an IC50 of over 10 µM. In data set [2], this compound yielded a CC50 at 72 h of 60 µM.
`COc1nc(N)nc2c1nc(I)n2[C@@H]1O[C@H](COP(=O)(N[C@@H](C)C(=O)OC2CCC2)Oc2cccc3ccccc23)[C@@H](O)[C@@]1(C)O` (stereo partly drawn) [Example 15, (2S)-Cyclobutyl 2-((((2R,3R,4R,5R)-5-(2-Amino-8-iodo-6-methoxy-9H-purin-9-yl)-3,4-dihydroxy-4-methyltetrahydrofuran-2-yl)methoxy)(naphthalen-1-yloxy)phosphorylamino)propanoate] returned an IC50 in data set [1] of 0.01 µM. Besides, the CC50 at 72 h in data set [2] stood at 6.8 µM.
In data set [1], `COc1nc(N)nc2c1nc(I)n2[C@@H]1O[C@H](COP(=O)(N[C@@H](C)C(=O)OC2CCCC2)Oc2cccc3ccccc23)[C@@H](O)[C@@]1(C)O` (stereo partly drawn) [Example 16, (2S)-Cyclopentyl 2-((((2R,3R,4R,5R)-5-(2-Amino-8-iodo-6-methoxy-9H-purin-9-yl)-3,4-dihydroxy-4-methyltetrahydrofuran-2-yl)methoxy)(naphthalen-1-yloxy)phosphorylamino)propanoate] returned an IC50 of 0.012 µM. It took 13 µM to reach half-maximal cytotoxicity in data set [2] (CC50 at 72 h).
On the same counts, the results for `COc1nc(N)nc2c1nc(I)n2[C@@H]1O[C@H](COP(=O)(N[C@@H](C)C(=O)OC2CCCCC2)Oc2cccc3ccccc23)[C@@H](O)[C@@]1(C)O` (stereo partly drawn) [Example 17, (2S)-Cyclohexyl 2-((((2R,3R,4R,5R)-5-(2-Amino-8-iodo-6-methoxy-9H-purin-9-yl)-3,4-dihydroxy-4-methyltetrahydrofuran-2-yl)methoxy)(naphthalen-1-yloxy)phosphorylamino)propanoate] are 0.016 µM and 11 µM.
On the same counts, the results for `COc1nc(N)nc2c1nc(I)n2[C@@H]1O[C@H](COP(=O)(N[C@@H](C)C(=O)OC2CCOCC2)Oc2cccc3ccccc23)[C@@H](O)[C@@]1(C)O` (stereo partly drawn) [Example 18, (2S)-Tetrahydro-2H-pyran-4-yl 2-((((2R,3R,4R,5R)-5-(2-Amino-8-iodo-6-methoxy-9H-purin-9-yl)-3,4-dihydroxy-4-methyltetrahydrofuran-2-yl)methoxy)(naphthalen-1-yloxy)phosphorylamino)propanoate] are 0.018 µM and 26 µM.
On the same counts, the results for `COc1nc(N)nc2c1nc(I)n2[C@@H]1O[C@H](COP(=O)(N[C@@H](CCSC)C(=O)OCc2ccccc2)Oc2cccc3ccccc23)[C@@H](O)[C@@]1(C)O` (stereo partly drawn) [Example 19, (2S)-Benzyl 2-((((2R,3R,4R,5R)-5-(2-Amino-8-iodo-6-methoxy-9H-purin-9-yl)-3,4-dihydroxy-4-methyltetrahydrofuran-2-yl)methoxy)(naphthalen-1-yloxy)phosphorylamino)-4-(methylthio)butanoate] are 0.034 µM and 29 µM.
`COc1nc(N)nc2c1nc(I)n2[C@@H]1O[C@H](COP(=O)(N[C@H](C(=O)OCc2ccccc2)C(C)C)Oc2cccc3ccccc23)[C@@H](O)[C@@]1(C)O` (stereo partly drawn) [Example 20, (2S)-Benzyl 2-((((2R,3R,4R,5R)-5-(2-Amino-8-iodo-6-methoxy-9H-purin-9-yl)-3,4-dihydroxy-4-methyltetrahydrofuran-2-yl)methoxy)(naphthalen-1-yloxy)phosphorylamino)-3-methylbutanoate] gave an IC50 in data set [1] of 0.14 µM. Besides, in data set [2], half-maximal cytotoxicity (CC50 at 72 h) was put at 25 µM.

For orientation: IC50 means the midpoint of a concentration-inhibition curve. Read a low IC50 as higher potency. For orientation: CC50 means the concentration that lowers cell viability or growth by half. Low values mean harm at low concentration, high ones better tolerance by the cells.
